Data taken from ChEMBL document CHEMBL1938349 (Bioorg Med Chem, 2012).
pKi: −log10 of the molar value.

Key:
[1] = target: T1, Alpha-2C adrenergic receptor (Homo sapiens, UniProt P18825); assay: Displacement of [3H]clonidine from human Alpha-2C receptor by liquid scintillation counting
T1 sequence (P18825 whole entry): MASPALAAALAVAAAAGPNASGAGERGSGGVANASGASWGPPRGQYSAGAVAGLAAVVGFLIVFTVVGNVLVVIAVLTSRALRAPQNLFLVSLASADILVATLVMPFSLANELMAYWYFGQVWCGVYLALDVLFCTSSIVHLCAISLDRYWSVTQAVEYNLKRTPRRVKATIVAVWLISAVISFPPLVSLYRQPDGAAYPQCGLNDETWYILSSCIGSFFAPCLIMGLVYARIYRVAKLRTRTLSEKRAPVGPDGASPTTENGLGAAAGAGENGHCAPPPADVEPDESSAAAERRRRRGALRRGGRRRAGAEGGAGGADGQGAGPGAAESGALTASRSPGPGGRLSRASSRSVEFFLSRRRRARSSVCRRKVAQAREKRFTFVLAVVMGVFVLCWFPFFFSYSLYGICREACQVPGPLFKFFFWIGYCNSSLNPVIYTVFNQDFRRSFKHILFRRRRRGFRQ

D(3) dopamine receptor = D(3) dopamine receptor (Homo sapiens, UniProt P35462); assay: Displacement of [3H]N-methylspiperone from human dopamine D3 receptor by liquid scintillation counting
Sequence of D(3) dopamine receptor (P35462 whole entry): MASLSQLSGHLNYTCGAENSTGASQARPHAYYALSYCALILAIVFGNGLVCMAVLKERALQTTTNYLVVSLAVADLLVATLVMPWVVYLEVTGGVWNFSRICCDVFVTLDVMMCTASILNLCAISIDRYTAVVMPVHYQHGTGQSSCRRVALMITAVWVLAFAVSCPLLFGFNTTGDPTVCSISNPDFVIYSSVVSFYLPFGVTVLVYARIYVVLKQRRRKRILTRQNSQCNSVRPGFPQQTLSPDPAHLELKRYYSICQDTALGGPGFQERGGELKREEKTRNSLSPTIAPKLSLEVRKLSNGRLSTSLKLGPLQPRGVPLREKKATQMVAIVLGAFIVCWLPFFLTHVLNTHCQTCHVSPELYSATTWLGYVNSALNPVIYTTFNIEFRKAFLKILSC

D(2) dopamine receptor = D(2) dopamine receptor (Homo sapiens, UniProt P14416); assay: Displacement of [3H]N-methylspiperone from human dopamine D2 receptor by liquid scintillation counting
Sequence of D(2) dopamine receptor (P14416 whole entry): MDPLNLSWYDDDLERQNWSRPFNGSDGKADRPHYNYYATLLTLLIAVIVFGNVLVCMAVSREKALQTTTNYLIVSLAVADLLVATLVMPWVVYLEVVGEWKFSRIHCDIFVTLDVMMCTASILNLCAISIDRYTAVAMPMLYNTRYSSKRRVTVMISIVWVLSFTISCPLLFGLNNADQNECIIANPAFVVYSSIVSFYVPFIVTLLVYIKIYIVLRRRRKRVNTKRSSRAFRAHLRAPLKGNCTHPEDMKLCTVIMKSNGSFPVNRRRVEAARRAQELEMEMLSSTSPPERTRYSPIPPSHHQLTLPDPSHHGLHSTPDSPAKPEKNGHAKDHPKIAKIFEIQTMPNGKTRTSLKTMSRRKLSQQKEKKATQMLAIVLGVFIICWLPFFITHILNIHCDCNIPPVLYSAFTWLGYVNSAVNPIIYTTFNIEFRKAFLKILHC

[2] = target: T2, 5-hydroxytryptamine receptor 2C (Rattus norvegicus, UniProt P08909); assay: Displacement of [3H]mesulergine from rat 5HT2C receptor by liquid scintillation counting
T2 sequence (P08909 whole entry): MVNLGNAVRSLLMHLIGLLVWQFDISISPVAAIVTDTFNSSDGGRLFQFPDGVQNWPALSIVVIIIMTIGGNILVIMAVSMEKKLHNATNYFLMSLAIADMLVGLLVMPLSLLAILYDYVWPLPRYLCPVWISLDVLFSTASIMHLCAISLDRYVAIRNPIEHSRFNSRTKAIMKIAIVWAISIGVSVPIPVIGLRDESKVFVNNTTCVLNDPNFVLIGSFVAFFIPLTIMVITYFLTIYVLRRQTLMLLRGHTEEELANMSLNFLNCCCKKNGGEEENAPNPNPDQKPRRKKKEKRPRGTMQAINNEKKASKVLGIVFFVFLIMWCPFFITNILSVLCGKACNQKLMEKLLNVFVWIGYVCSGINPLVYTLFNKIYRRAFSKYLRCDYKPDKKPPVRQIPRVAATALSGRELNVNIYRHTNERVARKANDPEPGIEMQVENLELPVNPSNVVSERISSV

[3] = target: T3, 5-hydroxytryptamine receptor 1A (Homo sapiens, UniProt P08908); assay: Displacement of [3H]8-OH-DPAT from human 5HT1A receptor by liquid scintillation counting
T3 sequence (P08908 whole entry): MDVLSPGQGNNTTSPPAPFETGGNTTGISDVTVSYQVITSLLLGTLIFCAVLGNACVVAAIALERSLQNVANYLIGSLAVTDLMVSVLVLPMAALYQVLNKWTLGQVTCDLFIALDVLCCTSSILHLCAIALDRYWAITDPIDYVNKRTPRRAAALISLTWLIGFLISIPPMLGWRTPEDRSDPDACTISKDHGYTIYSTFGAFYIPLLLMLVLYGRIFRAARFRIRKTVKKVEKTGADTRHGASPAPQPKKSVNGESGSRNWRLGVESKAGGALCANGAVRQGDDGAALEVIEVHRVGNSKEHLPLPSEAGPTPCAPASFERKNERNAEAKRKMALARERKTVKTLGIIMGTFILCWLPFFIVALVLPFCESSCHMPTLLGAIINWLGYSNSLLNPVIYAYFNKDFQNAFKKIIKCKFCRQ

D(4) dopamine receptor = target: T4, D(4) dopamine receptor (Rattus norvegicus, UniProt P30729); assay: Displacement of [3H]N-methylspiperone from rat dopamine D4 receptor by liquid scintillation counting
T4 sequence (P30729 whole entry): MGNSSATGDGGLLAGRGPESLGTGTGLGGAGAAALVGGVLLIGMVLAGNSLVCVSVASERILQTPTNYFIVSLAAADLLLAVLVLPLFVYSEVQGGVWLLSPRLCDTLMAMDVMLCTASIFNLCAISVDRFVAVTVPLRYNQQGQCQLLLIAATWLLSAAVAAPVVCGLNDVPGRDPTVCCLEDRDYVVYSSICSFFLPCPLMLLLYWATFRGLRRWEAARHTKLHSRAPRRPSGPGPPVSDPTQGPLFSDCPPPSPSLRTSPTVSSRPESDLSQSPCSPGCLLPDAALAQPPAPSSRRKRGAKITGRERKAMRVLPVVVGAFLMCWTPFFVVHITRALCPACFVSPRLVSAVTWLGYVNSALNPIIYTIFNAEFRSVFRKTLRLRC

[4] = target: 5-hydroxytryptamine receptor 2A (Homo sapiens, UniProt P28223); assay: Displacement of [3H]DOI from human 5HT2A receptor after 1 hr by liquid scintillation counting
Sequence of 5-hydroxytryptamine receptor 2A (P28223 whole entry): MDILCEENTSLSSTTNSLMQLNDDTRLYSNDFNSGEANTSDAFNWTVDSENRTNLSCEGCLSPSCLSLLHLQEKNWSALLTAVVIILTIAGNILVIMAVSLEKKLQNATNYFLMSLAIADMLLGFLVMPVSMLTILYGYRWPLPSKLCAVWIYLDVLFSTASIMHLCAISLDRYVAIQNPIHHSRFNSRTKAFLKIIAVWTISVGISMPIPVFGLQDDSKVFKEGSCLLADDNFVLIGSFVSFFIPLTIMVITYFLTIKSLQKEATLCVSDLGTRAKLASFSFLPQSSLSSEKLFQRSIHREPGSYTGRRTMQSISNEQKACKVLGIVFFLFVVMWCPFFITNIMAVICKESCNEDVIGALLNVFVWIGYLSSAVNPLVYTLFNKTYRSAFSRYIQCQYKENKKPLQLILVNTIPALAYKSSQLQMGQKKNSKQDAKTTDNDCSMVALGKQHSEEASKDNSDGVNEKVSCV

Histamine H1 receptor = Histamine H1 receptor (Homo sapiens, UniProt P35367)
Sequence of Histamine H1 receptor (P35367 whole entry): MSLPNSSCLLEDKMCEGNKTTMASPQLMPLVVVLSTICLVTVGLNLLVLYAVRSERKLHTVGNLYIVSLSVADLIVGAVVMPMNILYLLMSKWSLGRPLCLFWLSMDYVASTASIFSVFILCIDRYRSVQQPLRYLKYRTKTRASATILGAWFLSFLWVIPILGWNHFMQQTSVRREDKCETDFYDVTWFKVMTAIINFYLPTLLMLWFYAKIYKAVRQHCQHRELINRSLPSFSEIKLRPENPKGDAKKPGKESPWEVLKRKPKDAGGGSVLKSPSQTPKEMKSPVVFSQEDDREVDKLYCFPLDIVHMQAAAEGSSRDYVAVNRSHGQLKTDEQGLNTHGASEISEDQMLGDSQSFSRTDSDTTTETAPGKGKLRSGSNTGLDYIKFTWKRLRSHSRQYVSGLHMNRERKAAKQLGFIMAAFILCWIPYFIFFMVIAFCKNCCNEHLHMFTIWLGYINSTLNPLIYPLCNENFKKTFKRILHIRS

pKi [1]	SMILES	pKi (D(3) dopamine receptor)	pKi (D(2) dopamine receptor)	pKi [2]	pKi [3]	pKi (D(4) dopamine receptor)	pKi [4]	pKi (Histamine H1 receptor)
7.10	O=C(CCCN1CCN(c2ncccn2)CC1)c1ccc(F)cc1							
	OC1(c2ccc(Cl)cc2)CCN(CCCOc2ccc(F)cc2)CC1	6.74	8.28					
	Fc1ccc(SCCCN2CCC(c3ccc(Cl)cc3)CC2)cc1	6.89	6.73	< 5.00	6.34	7.41	6.95	
	Fc1ccc(OCCCN2CCC(c3ccc(Cl)cc3)CC2)cc1	6.16	7.39	< 5.00	6.77	8.02	6.92	
	[O-][S+](CCCN1CCC(c2ccc(Cl)cc2)CC1)c1ccc(F)cc1 (stereo not drawn)	6.61	6.00	< 5.00	6.21	7.46	6.65	
	Fc1ccc(CCCCN2CCN(c3ccc(Cl)cc3)CC2)cc1	6.58			6.95	8.11	7.09	
	Fc1ccc(SCCCN2CCN(c3ccc(Cl)cc3)CC2)cc1	6.37	6.68		6.78	8.06	7.28	
	Fc1ccc(SCCCN2CCN(c3ccc(C(F)(F)F)cc3)CC2)cc1	6.26	5.32		5.97	7.05	5.95	
	Fc1ccc(OCCCN2CCN(c3ccc(Cl)cc3)CC2)cc1	6.05	6.41		7.10	8.16	7.22	
	Fc1ccc(OCCCN2CCN(c3ccccc3)CC2)cc1	6.68	7.43		7.62	8.13	7.24	7.20
	Clc1ccc(N2CCN(CCCOc3ccccc3)CC2)cc1	6.14	6.35		6.81	8.25		
	c1ccc(OCCCN2CCN(c3ccccc3)CC2)cc1	7.10	6.92		7.60	8.35	7.34	7.17
	Fc1ccc(SCCCN2CCN(c3ncccn3)CC2)cc1	7.17	6.37	5.05	7.03	7.68	7.57	
	Fc1ccc(OCCCN2CCN(c3ncccn3)CC2)cc1	6.11	6.20	< 5.00	7.64	8.38	7.64	
7.35	Fc1ccc(SCCCN2CCN(c3ccccn3)CC2)cc1							6.67
	Fc1ccc(OCCCN2CCN(c3ccccn3)CC2)cc1							6.58

SMILES	pKi [1]	pKi (D(3) dopamine receptor)	pKi (D(2) dopamine receptor)	pKi [2]	pKi [3]	pKi (D(4) dopamine receptor)	pKi [4]	pKi (Histamine H1 receptor)
Fc1ccc(CCCCN2CCN(c3ccccn3)CC2)cc1	6.51							6.78
